Assays:
[1] = Induction of cell cycle arrest in mouse BaF3 cells harboring CCDC6-RET G810R mutant assessed as accumulation of cells at S phase at 30 nM incubated for 24 hrs by propidium iodide staining based analysis (reference value: 13.66%); type: functional
[2] = Induction of apoptosis in mouse BaF3 cells harboring CCDC6-RET assessed as necrotic cells at 10 nM incubated for 48 hrs by Annexin V-PE staining based flow cytometry analysis (Rvb =0.19%); type: functional
[3] = Induction of apoptosis in mouse BaF3 cells harboring CCDC6-RET G810C mutant assessed as viable cells at 100 nM incubated for 48 hrs by Annexin V-PE staining based flow cytometry analysis (Rvb =86.47%); type: functional; details: read-out: Activity
[4] = Induction of cell cycle arrest in mouse BaF3 cells harboring CCDC6-RET G810C mutant assessed as accumulation of cells at S phase at 30 nM incubated for 24 hrs by propidium iodide staining based analysis (reference value: 12.47%); type: functional
BaF3 [5] = experiment: Inhibition of SHC phosphorylation in mouse BaF3 cells harboring CCDC6-RET G810C mutant incubated for 12 hrs by Western blotting analysis; type: cell-based; details: dose <= 300.0 nM
Ephrin type-B receptor 4 = target: T1, Ephrin type-B receptor 4 (Homo sapiens, UniProt P54760); experiment: Inhibition of EPHB4 (unknown origin)
T1 sequence (P54760 whole entry): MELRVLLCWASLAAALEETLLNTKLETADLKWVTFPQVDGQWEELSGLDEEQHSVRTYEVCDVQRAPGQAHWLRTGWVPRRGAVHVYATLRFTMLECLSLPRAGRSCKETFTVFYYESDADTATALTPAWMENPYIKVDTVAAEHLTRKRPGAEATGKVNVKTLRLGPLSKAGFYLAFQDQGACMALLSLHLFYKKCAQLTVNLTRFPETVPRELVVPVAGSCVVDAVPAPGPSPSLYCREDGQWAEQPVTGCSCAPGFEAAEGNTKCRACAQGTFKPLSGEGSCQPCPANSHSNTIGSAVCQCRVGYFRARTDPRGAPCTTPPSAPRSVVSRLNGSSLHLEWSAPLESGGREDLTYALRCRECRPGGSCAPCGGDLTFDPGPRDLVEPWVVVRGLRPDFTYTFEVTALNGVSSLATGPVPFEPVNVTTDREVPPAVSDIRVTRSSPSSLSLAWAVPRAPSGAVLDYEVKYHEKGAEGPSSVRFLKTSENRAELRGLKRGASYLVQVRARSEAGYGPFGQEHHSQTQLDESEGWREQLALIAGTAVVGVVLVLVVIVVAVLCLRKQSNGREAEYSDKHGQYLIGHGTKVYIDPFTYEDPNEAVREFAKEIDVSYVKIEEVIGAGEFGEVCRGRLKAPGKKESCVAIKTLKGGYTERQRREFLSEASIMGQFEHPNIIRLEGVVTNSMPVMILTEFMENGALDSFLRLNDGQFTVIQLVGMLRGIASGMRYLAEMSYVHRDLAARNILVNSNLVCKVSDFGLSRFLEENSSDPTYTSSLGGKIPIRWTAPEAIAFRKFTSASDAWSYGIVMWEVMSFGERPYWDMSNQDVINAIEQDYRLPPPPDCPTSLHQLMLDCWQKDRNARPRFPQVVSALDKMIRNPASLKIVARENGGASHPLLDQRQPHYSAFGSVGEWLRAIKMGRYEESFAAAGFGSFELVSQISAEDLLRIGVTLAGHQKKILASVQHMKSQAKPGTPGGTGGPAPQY

[6] = Induction of cell cycle arrest in mouse BaF3 cells harboring CCDC6-RET assessed as accumulation of cells at G0/G1 phase at 300 nM incubated for 24 hrs by propidium iodide staining based analysis (reference value: 52.51%); type: functional
[7] = Induction of cell cycle arrest in mouse BaF3 cells harboring CCDC6-RET assessed as accumulation of cells at S phase at 30 nM incubated for 24 hrs by propidium iodide staining based analysis (reference value: 13.27%); type: functional
BaF3 [8] = experiment: Antitumor activity against mouse BaF3 cells implanted in SCID mouse assessed as tumor growth inhibition at 25 mg/kg, ip administered once daily for 10 days; type: functional; details: BaF3, 240 h, time 10 day, read-out: TGI
BaF3 [9] = experiment: Antiproliferative activity against mouse BaF3 cells harbouring CCDC6-RET V804M mutant assessed as inhibition of cell proliferation incubated for 72 hrs by CCK-8 assay; type: functional, cell-based; details: BaF3, 72 h
[10] = Induction of cell cycle arrest in mouse BaF3 cells harboring CCDC6-RET assessed as accumulation of cells at G2/M phase at 30 nM incubated for 24 hrs by propidium iodide staining based analysis (reference value: 34.11%); type: functional
[11] = target: Platelet-derived growth factor receptor alpha (Homo sapiens, UniProt P16234); experiment: Inhibition of PDGFRalpha (unknown origin)
Sequence of Platelet-derived growth factor receptor alpha (P16234 whole entry): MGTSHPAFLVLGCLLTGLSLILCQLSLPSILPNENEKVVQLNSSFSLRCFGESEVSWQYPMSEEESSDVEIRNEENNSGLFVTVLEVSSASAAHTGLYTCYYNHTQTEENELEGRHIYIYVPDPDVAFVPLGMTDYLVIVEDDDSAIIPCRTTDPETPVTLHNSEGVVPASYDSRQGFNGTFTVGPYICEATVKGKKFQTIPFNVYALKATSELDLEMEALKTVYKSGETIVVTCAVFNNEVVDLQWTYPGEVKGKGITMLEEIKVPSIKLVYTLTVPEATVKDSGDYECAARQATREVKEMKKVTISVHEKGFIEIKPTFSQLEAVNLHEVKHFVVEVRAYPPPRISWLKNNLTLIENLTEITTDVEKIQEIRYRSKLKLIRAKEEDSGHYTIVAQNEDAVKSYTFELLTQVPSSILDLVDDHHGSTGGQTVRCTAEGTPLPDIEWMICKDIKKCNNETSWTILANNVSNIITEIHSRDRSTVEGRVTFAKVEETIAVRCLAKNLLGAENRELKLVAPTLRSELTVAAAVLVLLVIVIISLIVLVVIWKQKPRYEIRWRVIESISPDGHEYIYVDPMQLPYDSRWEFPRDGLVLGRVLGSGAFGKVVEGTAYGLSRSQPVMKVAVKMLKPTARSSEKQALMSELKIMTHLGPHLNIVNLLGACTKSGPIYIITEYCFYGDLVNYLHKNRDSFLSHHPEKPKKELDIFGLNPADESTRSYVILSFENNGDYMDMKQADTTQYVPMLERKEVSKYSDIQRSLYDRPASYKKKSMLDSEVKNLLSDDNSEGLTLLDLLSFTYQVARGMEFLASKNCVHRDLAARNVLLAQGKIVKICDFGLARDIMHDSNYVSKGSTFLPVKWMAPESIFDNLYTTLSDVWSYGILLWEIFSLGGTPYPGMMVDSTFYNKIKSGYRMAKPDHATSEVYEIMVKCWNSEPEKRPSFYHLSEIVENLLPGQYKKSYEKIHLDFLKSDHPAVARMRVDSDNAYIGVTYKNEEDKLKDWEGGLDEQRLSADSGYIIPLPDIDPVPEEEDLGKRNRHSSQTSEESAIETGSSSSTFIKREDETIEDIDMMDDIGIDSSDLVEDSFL

[12] = Induction of apoptosis in mouse BaF3 cells harboring CCDC6-RET G810R mutant assessed as necrotic cells at 30 nM incubated for 48 hrs by Annexin V-PE staining based flow cytometry analysis (Rvb =0.30%); type: functional
[13] = Induction of apoptosis in mouse BaF3 cells harboring CCDC6-RET G810R mutant assessed as viable cells at 30 nM incubated for 48 hrs by Annexin V-PE staining based flow cytometry analysis (Rvb =86.40%); type: functional; details: read-out: Activity
[14] = Induction of apoptosis in mouse BaF3 cells harboring CCDC6-RET assessed as late apoptotic cells at 300 nM incubated for 48 hrs by Annexin V-PE staining based flow cytometry analysis (Rvb =2.44%); type: functional
BaF3 [15] = experiment: Inhibition of SHC phosphorylation in mouse BaF3 cells harboring CCDC6-RET G810R mutant incubated for 12 hrs by Western blotting analysis; type: cell-based; details: dose <= 300.0 nM
[16] = Induction of cell cycle arrest in mouse BaF3 cells harboring CCDC6-RET G810C mutant assessed as accumulation of cells at G0/G1 phase at 300 nM incubated for 24 hrs by propidium iodide staining based analysis (reference value: 52.11%); type: functional
[17] = Induction of apoptosis in mouse BaF3 cells harboring CCDC6-RET G810R mutant assessed as viable cells at 10 nM incubated for 48 hrs by Annexin V-PE staining based flow cytometry analysis (Rvb =86.40%); type: functional; details: read-out: Activity
Ephrin type-A receptor 2 = Ephrin type-A receptor 2 (Homo sapiens, UniProt P29317); experiment: Inhibition of EPHA2 (unknown origin) at 1 uM relative to control
Sequence of Ephrin type-A receptor 2 (P29317 whole entry): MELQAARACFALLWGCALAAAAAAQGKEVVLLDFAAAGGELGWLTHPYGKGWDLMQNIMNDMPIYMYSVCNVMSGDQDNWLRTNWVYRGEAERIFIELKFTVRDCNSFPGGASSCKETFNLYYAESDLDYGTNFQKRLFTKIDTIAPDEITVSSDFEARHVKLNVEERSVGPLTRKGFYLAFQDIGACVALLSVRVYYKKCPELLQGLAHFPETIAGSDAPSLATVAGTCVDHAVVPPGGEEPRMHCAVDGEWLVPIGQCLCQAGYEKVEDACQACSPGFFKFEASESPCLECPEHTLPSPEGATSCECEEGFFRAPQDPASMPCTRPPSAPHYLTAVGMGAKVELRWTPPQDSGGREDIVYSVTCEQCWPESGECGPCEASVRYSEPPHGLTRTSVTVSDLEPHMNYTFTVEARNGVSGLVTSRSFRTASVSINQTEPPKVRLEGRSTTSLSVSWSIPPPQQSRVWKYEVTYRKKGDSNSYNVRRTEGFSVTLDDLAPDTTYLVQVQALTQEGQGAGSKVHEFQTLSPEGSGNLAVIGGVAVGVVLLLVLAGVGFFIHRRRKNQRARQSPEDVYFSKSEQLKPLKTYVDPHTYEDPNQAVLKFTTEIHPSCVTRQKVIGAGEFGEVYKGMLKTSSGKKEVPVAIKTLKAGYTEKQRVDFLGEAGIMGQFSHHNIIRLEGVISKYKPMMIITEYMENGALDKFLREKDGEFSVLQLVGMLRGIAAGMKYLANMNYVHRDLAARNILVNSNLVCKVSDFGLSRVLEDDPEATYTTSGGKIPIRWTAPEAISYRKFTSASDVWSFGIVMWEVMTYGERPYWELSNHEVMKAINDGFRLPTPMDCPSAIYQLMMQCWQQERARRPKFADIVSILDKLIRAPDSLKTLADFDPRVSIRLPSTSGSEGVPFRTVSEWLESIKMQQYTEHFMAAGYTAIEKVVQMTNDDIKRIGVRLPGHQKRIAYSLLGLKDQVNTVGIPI

[18] = target: Proto-oncogene tyrosine-protein kinase receptor Ret (Homo sapiens, UniProt P07949); experiment: Inhibition of RET (unknown origin) at 1 uM relative to control
Sequence of Proto-oncogene tyrosine-protein kinase receptor Ret (P07949 whole entry): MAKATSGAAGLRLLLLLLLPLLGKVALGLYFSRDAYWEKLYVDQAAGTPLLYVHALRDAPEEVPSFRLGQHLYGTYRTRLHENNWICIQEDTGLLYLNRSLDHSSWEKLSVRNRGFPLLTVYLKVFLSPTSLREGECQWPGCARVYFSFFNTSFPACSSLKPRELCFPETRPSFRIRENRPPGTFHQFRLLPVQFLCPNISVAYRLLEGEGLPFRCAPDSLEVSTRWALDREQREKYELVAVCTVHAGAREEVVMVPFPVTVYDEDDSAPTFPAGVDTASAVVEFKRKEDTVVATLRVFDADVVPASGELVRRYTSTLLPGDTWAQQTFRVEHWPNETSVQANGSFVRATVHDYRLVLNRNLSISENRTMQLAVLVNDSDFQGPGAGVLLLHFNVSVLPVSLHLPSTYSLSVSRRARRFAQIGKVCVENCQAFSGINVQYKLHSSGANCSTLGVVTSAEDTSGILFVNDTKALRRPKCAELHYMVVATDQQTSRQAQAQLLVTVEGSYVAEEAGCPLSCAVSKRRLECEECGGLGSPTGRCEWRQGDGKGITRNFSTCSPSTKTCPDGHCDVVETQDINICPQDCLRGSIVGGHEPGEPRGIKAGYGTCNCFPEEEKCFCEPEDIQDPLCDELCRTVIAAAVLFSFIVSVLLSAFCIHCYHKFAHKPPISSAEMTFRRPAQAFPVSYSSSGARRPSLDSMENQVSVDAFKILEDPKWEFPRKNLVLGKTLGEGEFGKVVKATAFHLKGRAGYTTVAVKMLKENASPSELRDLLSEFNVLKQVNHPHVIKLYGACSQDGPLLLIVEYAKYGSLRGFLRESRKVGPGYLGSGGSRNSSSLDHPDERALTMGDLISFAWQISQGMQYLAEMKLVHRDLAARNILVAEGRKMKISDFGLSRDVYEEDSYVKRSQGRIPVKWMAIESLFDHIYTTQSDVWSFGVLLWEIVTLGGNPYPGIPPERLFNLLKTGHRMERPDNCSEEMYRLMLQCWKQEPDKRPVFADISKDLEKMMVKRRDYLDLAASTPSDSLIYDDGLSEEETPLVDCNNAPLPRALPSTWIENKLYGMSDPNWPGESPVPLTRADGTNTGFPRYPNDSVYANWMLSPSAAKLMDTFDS

[19] = Induction of cell cycle arrest in mouse BaF3 cells harboring CCDC6-RET G810R mutant assessed as accumulation of cells at G0/G1 phase at 300 nM incubated for 24 hrs by propidium iodide staining based analysis (reference value: 52.63%); type: functional
[20] = Induction of cell cycle arrest in mouse BaF3 cells harboring CCDC6-RET G810R mutant assessed as accumulation of cells at G0/G1 phase at 30 nM incubated for 24 hrs by propidium iodide staining based analysis (reference value: 52.63%); type: functional

- IC50 (Ephrin type-B receptor 4): 36.4 nM
- IC50 (BaF3 [9]): 563 nM
- IC50 [11]: 17.3 nM
- inhibition (Ephrin type-A receptor 2): 100%
- inhibition [18]: 98.3%
Compound: COc1cncc(-c2cn[nH]c2/C=C/c2ccc(NC(=O)Nc3cc(C(C)(C)C(F)(F)F)on3)c(Cl)c2)c1
- Activity [1]: 14.08%
- Activity [2]: 0.14%
- viability at 0.1 µM [3]: 60%
- Activity [4]: 11.11%
- inhibition (BaF3 [5]): Dose-dependent-effect
- Activity [6]: 84.1%
- Activity [7]: 13.33%
- inhibition in vivo at 25 mg/kg (BaF3 [8]): 39.7%
- Activity [10]: 30.23%
- Activity [12]: 0.14%
- viability at 0.03 µM [13]: 87.4%
- Activity [14]: 1.39%
- inhibition (BaF3 [15]): Dose-dependent-effect
- Activity [16]: 72.47%
- viability at 0.01 µM [17]: 86.4%
- Activity [19]: 78.85%
- Activity [20]: 53.02%

From ChEMBL document CHEMBL6103575, “Design, synthesis and evaluation of (E)-1-(4-(2-(1H-pyrazol-5-yl)vinyl)phenyl) derivatives as next generation selective RET inhibitors overcoming RET solvent front mutations (G810C/R)” (Eur J Med Chem, 2025)
